The NIST ThermoML archive (doi:10.1016/j.jct.2014.12.027)
± gives the expanded uncertainty stated by the source.

Experiment: activity coefficient (dimensionless); of the first substance listed, at infinite dilution; xn = mol fraction of the nth substance listed
Conditions: 101 kPa, Liquid, Chromatography, x1 = 0

Row | SMILES | activity coefficient (318.15 K) | activity coefficient (328.15 K) | activity coefficient (338.15 K) | activity coefficient (348.15 K) | activity coefficient (358.15 K) | activity coefficient (368.15 K)
1 | Cc1ccccc1C [1,2-dimethylbenzene] + CCCC[n+]1ccc(C)cc1.N#CC(=C=[N-])C#N | 1.4 ± 0.09 | 1.45 ± 0.1 | 1.49 ± 0.1 | 1.56 ± 0.1 | 1.61 ± 0.11 | 1.66 ± 0.11
2 | Cc1cccc(C)c1 [1,3-dimethylbenzene] + CCCC[n+]1ccc(C)cc1.N#CC(=C=[N-])C#N | – | 1.71 ± 0.11 | 1.76 ± 0.12 | 1.82 ± 0.12 | 1.88 ± 0.13 | 1.94 ± 0.13
3 | Cc1ccc(C)cc1 [1,4-dimethylbenzene] + CCCC[n+]1ccc(C)cc1.N#CC(=C=[N-])C#N | – | 1.66 ± 0.11 | 1.71 ± 0.11 | 1.79 ± 0.12 | 1.84 ± 0.12 | 1.9 ± 0.13
4 | C1COCCO1 [1,4-dioxane] + CCCC[n+]1ccc(C)cc1.N#CC(=C=[N-])C#N | 0.573 ± 0.041 | 0.601 ± 0.042 | 0.624 ± 0.043 | 0.656 ± 0.045 | 0.68 ± 0.046 | 0.708 ± 0.047
5 | C#CCCCCC [1-heptyne] + CCCC[n+]1ccc(C)cc1.N#CC(=C=[N-])C#N | 4.09 ± 0.28 | 4.15 ± 0.28 | 4.22 ± 0.29 | 4.29 ± 0.29 | 4.34 ± 0.3 | 4.43 ± 0.3
6 | C#CCCCC [1-hexyne] + CCCC[n+]1ccc(C)cc1.N#CC(=C=[N-])C#N | 2.98 ± 0.2 | 3.04 ± 0.21 | 3.1 ± 0.21 | 3.17 ± 0.22 | 3.25 ± 0.22 | 3.3 ± 0.22
7 | CCC[N+](=O)[O-] [1-nitropropane] + CCCC[n+]1ccc(C)cc1.N#CC(=C=[N-])C#N | – | 0.748 ± 0.049 | 0.756 ± 0.05 | 0.769 ± 0.05 | 0.783 ± 0.051 | 0.792 ± 0.052
8 | CC(C)CO [2-methyl-1-propanol] + CCCC[n+]1ccc(C)cc1.N#CC(=C=[N-])C#N | 1.33 ± 0.086 | 1.23 ± 0.079 | 1.16 ± 0.074 | 1.11 ± 0.07 | 1.06 ± 0.067 | 1.02 ± 0.064
9 | CC(C)=O [acetone] + CCCC[n+]1ccc(C)cc1.N#CC(=C=[N-])C#N | 0.598 ± 0.042 | 0.617 ± 0.043 | 0.634 ± 0.044 | 0.656 ± 0.045 | 0.672 ± 0.046 | 0.686 ± 0.046
10 | CC#N [acetonitrile] + CCCC[n+]1ccc(C)cc1.N#CC(=C=[N-])C#N | 0.584 ± 0.041 | 0.59 ± 0.04 | 0.593 ± 0.042 | 0.599 ± 0.042 | 0.604 ± 0.042 | 0.613 ± 0.043
11 | c1ccccc1 [benzene] + CCCC[n+]1ccc(C)cc1.N#CC(=C=[N-])C#N | 0.889 ± 0.057 | 0.916 ± 0.058 | 0.937 ± 0.059 | 0.976 ± 0.061 | 1 ± 0.06 | 1.02 ± 0.06
12 | CCCCO [butan-1-ol] + CCCC[n+]1ccc(C)cc1.N#CC(=C=[N-])C#N | 1.31 ± 0.09 | 1.23 ± 0.08 | 1.17 ± 0.07 | 1.13 ± 0.07 | 1.09 ± 0.07 | 1.05 ± 0.07
13 | C1CCCCCC1 [cycloheptane] + CCCC[n+]1ccc(C)cc1.N#CC(=C=[N-])C#N | 12.8 ± 0.9 | 12.1 ± 0.8 | 11.7 ± 0.8 | 11.1 ± 0.8 | 10.6 ± 0.7 | 10.3 ± 0.7
14 | C1CCCCC1 [cyclohexane] + CCCC[n+]1ccc(C)cc1.N#CC(=C=[N-])C#N | 11.1 ± 0.8 | 10.5 ± 0.7 | 10 ± 0.7 | 9.57 ± 0.65 | 9.07 ± 0.62 | 8.65 ± 0.59
15 | CCCCCCCCCC [decane] + CCCC[n+]1ccc(C)cc1.N#CC(=C=[N-])C#N | 90.4 ± 6.2 | 83 ± 5.7 | 76.5 ± 5.2 | 72.6 ± 5 | 67.7 ± 4.6 | 62.8 ± 4.3
16 | CCO [ethanol] + CCCC[n+]1ccc(C)cc1.N#CC(=C=[N-])C#N | 0.917 ± 0.058 | 0.876 ± 0.056 | 0.838 ± 0.054 | 0.812 ± 0.053 | 0.784 ± 0.051 | 0.755 ± 0.05
17 | CCOC(C)=O [ethyl acetate] + CCCC[n+]1ccc(C)cc1.N#CC(=C=[N-])C#N | 1.3 ± 0.08 | 1.33 ± 0.09 | 1.36 ± 0.09 | 1.4 ± 0.09 | 1.42 ± 0.09 | 1.46 ± 0.1
18 | CCc1ccccc1 [ethylbenzene] + CCCC[n+]1ccc(C)cc1.N#CC(=C=[N-])C#N | 1.78 ± 0.12 | 1.83 ± 0.12 | 1.87 ± 0.13 | 1.93 ± 0.13 | 1.98 ± 0.13 | 2.01 ± 0.14
